Where two headings read alike, the source gives them in different places.
Columns and labels:
[1] = target: DCN1 (DCUND1) protein PONY domain (Homo sapiens (Human), UniProt Q96GG9); assay: TR-FRET assay, DCN1 binding with FAM-labeled probe
Outline: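 First, the E. coli-derived PONY domain was biotinylated and paired with streptavidin Tb cryptate. Compounds in 0.1% DMSO were then added to DCN1 and FAM-probe (5 nM/20 nM, or 0.31 nM/900 nM total with 800 nM unlabelled) in TritonX, 200 mM NaCl buffer. Finally, TR-FRET ratios were recorded at 1, 5 and 24 hrs.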

DCN1 protein = DCN1 protein (Homo sapiens (Human), UniProt Q96GG9); assay: Intact Protein MS Analysis with the RapidFire-TOF System (covalent adduct formation); type: binding; settings: MS Emax; 400 nM DCN1, 3 hours at room temperature
Outline: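 Tag-cleaved human DCN1 (400 nM) expressed in E. coli, in 25 mM Tris-HCl, 200 mM NaCl, 1 mM DTT, was incubated with 11 compound concentrations for 3 h at room temperature and quenched with 0.2% formic acid. Intact-protein Q-TOF MS with deconvolution detected the compound adduct mass.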

[2] = 24 hr after treatment with compound, read-out: TR FRET IC50 24 hr
[3] = read-out: TR FRET IC50 1 hr, 1 hr after treatment with compound
[4] = TR FRET IC50 1 hr (nM), 1 hr after treatment with compound

Sequence of DCN1 (DCUND1) protein PONY domain (Q96GG9 60-248): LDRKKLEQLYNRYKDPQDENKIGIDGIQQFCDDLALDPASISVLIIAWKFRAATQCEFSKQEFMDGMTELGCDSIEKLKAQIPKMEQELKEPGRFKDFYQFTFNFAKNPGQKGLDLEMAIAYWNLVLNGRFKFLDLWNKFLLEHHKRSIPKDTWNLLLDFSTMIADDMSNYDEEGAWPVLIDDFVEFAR
Sequence of DCN1 protein (Q96GG9 whole entry): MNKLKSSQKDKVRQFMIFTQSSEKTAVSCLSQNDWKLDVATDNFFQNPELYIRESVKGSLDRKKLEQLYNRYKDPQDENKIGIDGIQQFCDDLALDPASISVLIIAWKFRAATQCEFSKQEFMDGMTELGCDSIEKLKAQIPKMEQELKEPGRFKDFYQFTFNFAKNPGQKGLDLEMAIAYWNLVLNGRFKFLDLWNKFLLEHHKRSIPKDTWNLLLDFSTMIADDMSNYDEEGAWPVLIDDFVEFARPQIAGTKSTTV

CCN1C(=O)[C@@H](NC(=O)c2cccc(C(F)(F)F)c2)[C@@H](c2ccc(F)cc2)c2c(CN(C)C(=O)[C@H](C)Cl)nn(-c3ccccc3)c21 (stereo in doubt) [Compound I-30]
IC50 [1, 2]: 1000 to 3000 nM | IC50 [1, 3]: > 3000 nM | % Adduct Formation (DCN1 protein): + (MS Emax % adduct formation greater than or equal to 0.0 and less than or equal to 30.0)

CCN1C(=O)[C@@H](NC(=O)c2cccc(C(F)(F)F)c2)[C@@H](c2ccc(F)cc2)c2c(CN(C)C(=O)[C@H](C)Cl)nn(-c3ccccc3)c21 (stereo in doubt) [Compound I-33]
IC50 [1, 2]: 1000 to 3000 nM | IC50 [1, 4]: 1000 to 3000 nM | % Adduct Formation (DCN1 protein): + (MS Emax % adduct formation greater than or equal to 0.0 and less than or equal to 30.0)

CCN1C(=O)[C@@H](NC(=O)c2cccc(C(F)(F)F)c2)[C@@H](c2ccc(F)cc2)c2c(C/C=C/C(=O)OC)nn(-c3ccccc3)c21 (racemic) [Compound I-131, rac-methyl (E)-4-((4R,5R)-7-ethyl-4-(4-fluorophenyl)-6-oxo-1-phenyl-5-(3-(trifluoromethyl)benzamido)-4,5,6,7-tetrahydro-1H-pyrazolo[3,4-b]pyridin-3-yl)but-2-enoate]
IC50 [1, 2]: 200 to 1000 nM | IC50 [1, 4]: 1000 to 3000 nM | % Adduct Formation (DCN1 protein): + (MS Emax % adduct formation greater than or equal to 0.0 and less than or equal to 30.0)

CCN1C(=O)[C@@H](NC(=O)c2cccc(C(F)(F)F)c2)[C@@H](c2ccc(F)cc2)c2c(C(=O)N3CCCC[C@@H]3C#N)nn(-c3ccccc3)c21 [Compound I-121]
IC50 [1, 2]: ≤ 200 nM | IC50 [1, 3]: ≤ 200 nM | % Adduct Formation (DCN1 protein): ++ (MS Emax % adduct formation greater than 30.0 and less than or equal to 80.0)

CCN1C(=O)[C@@H](NC(=O)c2cccc(C(F)(F)F)c2)[C@@H](c2ccc(F)cc2)c2c(C/C=C/C(=O)O)nn(-c3ccccc3)c21 (racemic) [Compound I-83, rac-(E)-4-((4R,5R)-7-ethyl-4-(4-fluorophenyl)-6-oxo-1-phenyl-5-(3-(trifluoromethyl)benzamido)-4,5,6,7-tetrahydro-1H-pyrazolo[3,4-b]pyridin-3-yl)but-2-enoic acid]
IC50 [1, 2]: 1000 to 3000 nM | IC50 [1, 4]: 1000 to 3000 nM | % Adduct Formation (DCN1 protein): + (MS Emax % adduct formation greater than or equal to 0.0 and less than or equal to 30.0)

C/C=C/C(=O)N[C@@H](C)c1nn(-c2ccccc2)c2c1[C@H](c1ccc(F)cc1)[C@H](NC(=O)c1cccc(C(F)(F)F)c1)C(=O)N2CC (mixture of isomers) [Compound I-23]
IC50 [1, 2]: 1000 to 3000 nM | IC50 [1, 4]: 1000 to 3000 nM | % Adduct Formation (DCN1 protein): + (MS Emax % adduct formation greater than or equal to 0.0 and less than or equal to 30.0)

CC#CC(=O)N(C)Cc1nn(-c2ccccc2)c2c1[C@H](c1ccc(F)cc1)[C@H](NC(=O)c1cccc(C(F)(F)F)c1)C(=O)N2CC (racemic) [Compound I-90]
IC50 [1, 2]: > 3000 nM | IC50 [1, 3]: > 3000 nM | % Adduct Formation (DCN1 protein): + (MS Emax % adduct formation greater than or equal to 0.0 and less than or equal to 30.0)

CCN1C(=O)[C@@H](NC(=O)c2cccc(C(F)(F)F)c2)[C@@H](c2ccc(F)cc2)c2c(NS(=O)(=O)CCl)nn(-c3ccccc3)c21 (racemic) [Compound I-163]
IC50 [1, 2]: ≤ 200 nM | IC50 [1, 3]: ≤ 200 nM | % Adduct Formation (DCN1 protein): + (MS Emax % adduct formation greater than or equal to 0.0 and less than or equal to 30.0)

C#Cc1nn(-c2ccccc2)c2c1[C@H](c1ccc(F)cc1)[C@@H](NC(=O)c1cccc(C(F)(F)F)c1)C(=O)N2CC (racemic) [Compound I-235, N-((4S,5R)-7-ethyl-3-ethynyl-4-(4-fluorophenyl)-6-oxo-1-phenyl-4,5,6,7-tetrahydro-1H-pyrazolo[3,4-b]pyridine-5-yl)-3-(trifluoromethyl)benzamide]
% Adduct Formation (DCN1 protein): + (MS Emax % adduct formation greater than or equal to 0.0 and less than or equal to 30.0)

C#CCNC(=O)c1nn(-c2ccccc2)c2c1[C@H](c1ccc(F)cc1)[C@H](NC(=O)c1cccc(C(F)(F)F)c1)C(=O)N2CC (racemic) [Compound I-242]
% Adduct Formation (DCN1 protein): + (MS Emax % adduct formation greater than or equal to 0.0 and less than or equal to 30.0)

Reference: patent US20250163057A1, “DCN-1 MODULATING COMPOUNDS AND METHODS OF USE THEREOF” (Cellarity, Inc., priority 2023, published 2025)
